The test system of one series is nSMase2. Particulars: cited from earlier work.
Details of series [1]: method as in PMID 35930706. The note with it: cited from earlier work; for Cmax / Tmax / t(1/2) / AUC0–t: released DPTIP in plasma, CES1−/− mice, PO 10 mg/kg DPTIP or equivalent, previously published.
Series [2] can be described thus: In vitro stability in dog plasma. It is filed as in vitro ADME. The note with it: 37 °C; for remaining at 1 h, 10 μM: dog, 60 min, read-out: In Vitro Stability in Plasma (% Remaining at 60 min) Mean ± SEM (n = 3), Dogs; for In Vitro Stability in Plasma (% Remaining at 60 min) Mean ± SEM (n = 3), Dogs: 10 μM. How it is done: (§1) The in vitro metabolic stability analysis of DPTIP prodrugs was performed in the plasma of mice, dogs, and humans, as previously described. Briefly, for plasma stability, 1 mL of plasma was spiked with 10 μM of the respective prodrug followed by incubation in an orbital shaker at 37 °C for 1 h (in triplicate). The samples from each incubation at predetermined time points (0 and 60 min) was quenched with 3× volume of acetonitrile containing the internal standard (IS; losartan: 0.5 μM). The samples were vortex-mixed for 30 s and centrifuged at 10,000× g for 10 min at 4 °C. Compound disappearance over time was monitored via a Dionex ultra-high-performance LC system coupled with a Q Exactive Focus orbitrap mass spectrometer (Thermo Fisher Scientific Inc., Waltham, MA, USA). Quantification of the prodrugs was performed in full scan mode (from m/z 75 to 1125) by comparing t = 0 min samples with t = 60 min samples.

A short description of series [3]: In vitro stability in human plasma. It is filed as in vitro ADME. The note with it: 37 °C; for remaining at 1 h, 10 μM: human, 60 min, read-out: In Vitro Stability in Plasma (% Remaining at 60 min) Mean ± SEM (n = 3), Humans; for In Vitro Stability in Plasma (% Remaining at 60 min) Mean ± SEM (n = 3), Humans: 10 μM. How it is done:
as §1

Series [4] in a line: Pharmacokinetic study in dogs, released DPTIP in plasma after IV or peroral dose. It is filed as in vivo, male Beagle dogs. How it is done:
The PK studies in dogs were performed in accordance with the guidelines recommended by Pharmaron (San Diego, CA, USA) Institutional Animal Care and Use Committee. Briefly, male Beagle dogs 9 to 11 kg were obtained from the test facility’s colony of non-naïve animals. The animals were fasted overnight prior to dose administration and fed 4 h after dosing. The body weights were recorded and the animals were dosed with DPTIP, and prodrugs 2, 3, 4, 6, 7, 8, and 9 at 2 mg/kg equivalent of DPTIP as a single preoral dose PO (n = 2) with the exception of DPTIP IV dosed at 1 mg/kg (n = 1). All drugs were dissolved in the formulations (5% NMP, 5% Kolliphor, 30% PEG, and 60% water v/v) made freshly prior to dosing. The blood samples were collected via a cephalic vein at specified time points (0.083, 0.25, 0.5, 1, 2, 4, 6, 8, and 24 h) post-drug administration, and transferred into tubes containing sodium fluoride as a stabilizer (10 µL/mL of 500 µg/mL). The tubes were stored on wet ice until processed to plasma by centrifugation (3500× g at 4 °C for 10 min) within 30 min of collection. The plasma samples were transferred into individually labeled matrix tubes and stored at nominal −80 °C immediately (within 10 min of separation) until bioanalysis.
The quantification of the released DPTIP was performed using our previously published method with minor modifications. Briefly, calibration standards were prepared by spiking the DPTIP into naïve plasma from mice and dogs. All the calibration curves were constructed in the range of 1–3000 pmol/mL in the naïve sample-matched matrices in both the mouse and dog samples. Linear regression with 1/(nominal concentration) weighting factor was used for fitting the calibration curve. A correlation coefficient greater than 0.99 was considered acceptable in the analytical runs for all analyses.
The plasma samples from both mice and dogs were processed through simple protein precipitation. For this, 20 µL of plasma was mixed with 100 µL methanol containing 0.5 µM losartan (internal standards; IS) in low retention microcentrifuge tubes. All samples were vortex-mixed and centrifuged at 16,000× g for 5 min at 4 °C. A 50 µL of aliquot of supernatant was diluted with 50 µL of LC-MS water transferred to a 96-well polypropylene autosampler sealed with a Teflon cap. A volume of 2 µL was injected onto the ultra-performance liquid chromatography instrument for quantitative analysis using a temperature-controlled autosampler operating at 4 °C. Chromatographic separation was performed using a Thermo Scientific Vanquish ultra-high-performance system consisting of an analytical pump and coupled with a TSQ Altis mass spectrometer. The analytes were separated using an Agilent Eclipse Plus column (100 × 2.1 mm i.d, 1.8 μm) maintained at 35 °C. The (M+H)^+ ion transition of DPTIP (m/z 378.85 → 363.07, 200.05) and losartan (IS) (m/z 423.2 → 207.10, 180.88) were used. A gradient method was used with a mobile phase composition of 0.1% formic acid in acetonitrile and 0.1% formic acid in water.
The plasma concentrations (pmol/mL) for the mice were quantified, and plots of mean plasma concentration versus time were constructed using GraphPad Prism (10.3.0). Similarly, plasma concentrations (pmol/mL) for the dogs were measured and corresponding mean plasma concentration versus time plots were generated. The plasma concentrations in both mice and dogs were analyzed using a noncompartmental analysis method as implemented in the computer software program Phoenix WinNonlin version 8.4 (Certara USA Inc., Princeton, NJ, USA). The maximum plasma concentration (Cmax) and time to Cmax (Tmax) were the observed values. The area under the plasma concentration–time curve (AUC) values were calculated to the last quantifiable sample (AUC0–t) using the log-linear trapezoidal rule. The oral bioavailability was calculated by AUCPO divided by AUC IV with dose normalization. […]

Details of series [5]: method as in PMID 30531925, PMID 30921693. The note with it: cited from earlier work.
The next series relates to rat brain nSMase2. Also on record: method as in PMID 33395289. Particulars: cited from earlier work.
Series [6] in a line: Pharmacokinetic study in CES1−/− mice, released DPTIP in plasma after peroral dose. It is filed as in vivo, C57BL/6 CES1−/− mice. Particulars: PO 10 mg/kg DPTIP equivalent. How it is done: In vivo mice PK studies were carried out as previously described. Briefly, mice PK studies were carried out in CES1^−/− mice according to protocols approved by the Animal Care and Use Committee at Johns Hopkins University. The C57BL/6 CES1^−/^− mice were received from the United States Army Medical Research Institute of Chemical Defense, Maryland, and maintained on a 12 h light−dark cycle with ad libitum access to food and water. Prodrugs 3, 4, 5, 6, 8, and 9 were administered at a dose of 10 mg/kg equivalent of DPTIP to CES1^−/− mice as a single peroral (PO) dose made fresh in formulation (5% DMSO, 10% tween, and 85% saline v/v/v) prior to dosing. […]
The quantification of the released DPTIP was performed using our previously published method with minor modifications. […]
The plasma samples from both mice and dogs were processed through simple protein precipitation. […] A volume of 2 µL was injected onto the ultra-performance liquid chromatography instrument for quantitative analysis using a temperature-controlled autosampler operating at 4 °C. […]
The plasma concentrations (pmol/mL) for the mice were quantified, and plots of mean plasma concentration versus time were constructed using GraphPad Prism (10.3.0). Similarly, plasma concentrations (pmol/mL) for the dogs were measured and corresponding mean plasma concentration versus time plots were generated. […]

The nature of series [7]: In vitro stability in mouse plasma. Particulars: CES1−/−, 37 °C, 60 min, read-out: In Vitro Stability in Plasma (% Remaining at 60 min) Mean ± SEM (n = 3), Mice. It is filed as in vitro ADME. How it is done: as §1
Details of series [8]: method as in PMID 8593015. Particulars: valine ester prodrug, transport via PEPT1 in the intestine; cited from earlier work.

SMILES strings stand for the structures. Values joined by “and” are separate entries in the source; they are usually repeats but may differ in a detail not shown here. Identical values can stand only once. Counter-ions that a name gives are not always drawn. Like-named read-outs stand apart in the source and are kept apart here.

As a reminder, the IC50 is the concentration that inhibits the measured activity by half. Usually Tmax stands for the time from dosing to the highest level. Broadly, the fraction remaining is what is left of the initial amount, in per cent. As usually defined, the half-life is how long it takes for the measured level to halve. Take `COc1cc(-c2nc(-c3cccs3)c(-c3ccccc3)[nH]2)cc(OC)c1O` [DPTIP, 2,6-dimethoxy-4-(5-phenyl-4-(thiophen-2-yl)-1H-imidazol-2-yl)-phenol]: the IC50 with nSMase2 was 30 nM. Further, the Cmax in [1] is 307 ± 93.9 nM; in series [4] (male, Beagle, dog, plasma, iv, 1 mg/kg, IV 1 mg/kg, read-out: maximum plasma concentration (Cmax)), 2400 nM; in series [4] (male, Beagle, dog, plasma, iv, 1 mg/kg, IV 1 mg/kg, value dose adjusted to 2 mg/kg, read-out: Cmax), 4800 nM. Moreover, the time of peak concentration (Tmax) in [1] is reported as 0.25 h. Also, the “t(1/2)” value is 0.46 h in series [1] and 3.71 h in [4] (IV 1 mg/kg (n = 1), 1 mg/kg). The share remaining at 1 h, 10 μM in series [2] and in series [3] was greater than 90% in each case. Besides, the clearance in series [4] (male, Beagle, dog, plasma, IV 1 mg/kg, read-out: clearance (CL)) amounted to 12 mL/min/kg. For the same compound, the C0 in series [4] (male, Beagle, dog, plasma, IV 1 mg/kg, read-out: initial plasma concentration (C0)) came to 2500 nM. Moreover, the Vd in series [4] (male, Beagle, dog, plasma, IV 1 mg/kg, read-out: volume of distribution (Vd)) was 3.8 L/kg. Moreover, the half-life in [4] (male, Beagle, dog, plasma, iv, 1 mg/kg, IV 1 mg/kg (n = 1)) is 3.7 h; in [5] (mice) it was less than 0.5 h. Moreover, the AUC(0-t) was 3.9 µM·h in [4] (male, Beagle, dog, plasma, iv, 1 mg/kg, IV 1 mg/kg, read-out: exposures (AUC0–t)) and 7.81 µM·h in series [4] (male, Beagle, dog, plasma, iv, 1 mg/kg, IV 1 mg/kg, value dose adjusted to 2 mg/kg, read-out: AUC0–t). Besides, in series [5] (as given in abstract), the “half-life (t1/2)” value was no more than 0.5 h. Moreover, in [5] (mice), the “oral bioavailability (%F)” value is less than 5%.

`O=C(/C=C/c1ccc(/C=C/C(=O)Nc2ccc(C3=NCCN3)cc2)cc1)Nc1ccc(C2=NCCN2)cc1` [GW4869]: in the series on rat brain nSMase2, the IC50 is 1000 nM.

As for `COc1cc(-c2nc(-c3ccccc3)c(-c3cccs3)[nH]2)cc(OC)c1OC(=O)N1CCC(N2CCCCC2)CC1` [Prodrug 2], in [1], the “AUC0–t” value is reported as 273 ± 36.8 pmol·h/mL, the Cmax was 149 ± 9.9 nM, the Tmax was 1 h and the “t(1/2)” value is 1.4 h. The share remaining at 1 h, 10 μM in series [2] is greater than 90%. For the same compound, in series [3], the amount remaining at 1 h, 10 μM is greater than 90%.

Regarding `CCCCCC(=O)Oc1c(OC)cc(-c2nc(-c3ccccc3)c(-c3cccs3)[nH]2)cc1OC` [Prodrug 3], in series [2], the “In Vitro Stability in Plasma (% Remaining at 60 min) Mean ± SEM (n = 3), Dogs” value came to 62.9 ± 7.2% and the amount remaining at 1 h, 10 μM was roughly 60%. In addition, in series [3], the “In Vitro Stability in Plasma (% Remaining at 60 min) Mean ± SEM (n = 3), Humans” value was 79.3 ± 1.4% and the fraction remaining at 1 h, 10 μM was roughly 80%. The “fold increase in DPTIP half-life compared to DPTIP” value in series [6] is given as “no significant improvement”.

As to `COc1cc(-c2nc(-c3ccccc3)c(-c3cccs3)[nH]2)cc(OC)c1OC(=O)N(C)C` [Prodrug 4], the share remaining at 1 h, 10 μM in series [2] and in series [3] was greater than 90% in each case.

Regarding `COc1cc(-c2nc(-c3ccccc3)c(-c3cccs3)[nH]2)cc(OC)c1OCOP(=O)(O)O` [Prodrug 6], the fraction remaining at 1 h, 10 μM in series [2] and in [3] was greater than 90% each time. In addition, the “fold increase in DPTIP half-life compared to DPTIP” value in series [6] is listed as “no significant improvement”.

Turning to `CCC1CC(N2CCCCC2)CC(CC)N1C(=O)Oc1c(OC)cc(-c2nc(-c3ccccc3)c(-c3cccs3)[nH]2)cc1OC` (stereo not drawn) [Prodrug 7], the “fold increase in DPTIP plasma exposure (AUC0–t) compared to DPTIP” value in [1] (mice, PO) is > 4 fold and 4 fold. In series [1], the “AUC0–t” value is reported as 1047 ± 101 ^α pmol·h/mL, the Cmax is 191 ± 39.6 nM, the Tmax is reported as 2 h and the “t(1/2)” value is 2.7 h. In series [2], the share remaining at 1 h, 10 μM is greater than 90%. Moreover, the amount remaining at 1 h, 10 μM in [3] is greater than 90%.

For `COc1cc(-c2nc(-c3ccccc3)c(-c3cccs3)[nH]2)cc(OC)c1OC(=O)[C@@H](N)C(C)C` [Prodrug 8, 2,6-Dimethoxy-4-(4-phenyl-5-(thiophen-2-yl)-1H-imidazol-2-yl) phenyl L-valinate hydrochloride], the amount remaining at 1 h, 10 μM in series [2] and in series [3] was roughly 0% in each case.

In the case of `COc1cc(-c2nc(-c3ccccc3)c(-c3cccs3)[nH]2)cc(OC)c1OC(=O)[C@@H](NC(=O)[C@@H](N)C(C)C)C(C)C` [Prodrug 9], in series [7], the amount remaining at 1 h, 10 μM fell in the range of 40 to 77%. In [2], the “In Vitro Stability in Plasma (% Remaining at 60 min) Mean ± SEM (n = 3), Dogs” value came to 76.3 ± 1.8%. Besides, in [3], the “In Vitro Stability in Plasma (% Remaining at 60 min) Mean ± SEM (n = 3), Humans” value is 76.4 ± 1.4%.

As for `CC(C)[C@H](N)C(=O)OCCOCn1cnc2c(=O)[nH]c(N)nc21` [valacyclovir], the “fold increase in oral bioavailability” value in series [8] is 3–5 fold.
